Assay results from publication PMC6570762, “Identification of a binding protein for sesamin and characterization of its roles in plant growth” (Scientific Reports, 2019).

Biological target: T1, Steroleosin B (GST-fused Steroleosin B) (Sesamum indicum, UniProt Q8LKV5)
T1 construct: gene SOP3
T1 sequence (Q8LKV5 1-362): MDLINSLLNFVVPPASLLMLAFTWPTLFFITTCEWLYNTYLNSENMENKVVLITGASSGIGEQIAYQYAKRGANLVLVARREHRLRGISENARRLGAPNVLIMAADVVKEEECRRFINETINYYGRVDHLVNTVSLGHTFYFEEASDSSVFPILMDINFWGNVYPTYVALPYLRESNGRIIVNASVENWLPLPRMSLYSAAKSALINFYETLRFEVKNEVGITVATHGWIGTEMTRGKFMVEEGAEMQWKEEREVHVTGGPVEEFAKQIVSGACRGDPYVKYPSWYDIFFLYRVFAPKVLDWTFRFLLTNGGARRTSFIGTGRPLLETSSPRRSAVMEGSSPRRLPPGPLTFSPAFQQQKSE
Assay: STD-NMR ([…] MHz)
Type: binding
Conditions: 60 μM sesamin, 0.5 μM GST-Steroleosin B, stated ligand:protein ratio 60:1; PBS in D2O, 5% DMSO-d6, 298 K; GST alone as control

c1cc2c(cc1[C@H]1OC[C@H]3[C@@H]1CO[C@@H]3c1ccc3c(c1)OCO3)OCO2 [sesamin]
STD-NMR (800 MHz): these results demonstrate the direct interaction between sesamin and Steroleosin B
